# Experimental data: BindingDB's records for doi:10.7270/Q24T6GTZ (Burnham Center For Chemical Genomics, 2010)
# Biological target: Kappa-type opioid receptor (Homo sapiens, UniProt P41145)
# Test: KOR agonist analogs, imaging readout, SAR follow-up, image-based (AID 2359)
# Kappa-type opioid receptor, sequence (P41145 whole entry): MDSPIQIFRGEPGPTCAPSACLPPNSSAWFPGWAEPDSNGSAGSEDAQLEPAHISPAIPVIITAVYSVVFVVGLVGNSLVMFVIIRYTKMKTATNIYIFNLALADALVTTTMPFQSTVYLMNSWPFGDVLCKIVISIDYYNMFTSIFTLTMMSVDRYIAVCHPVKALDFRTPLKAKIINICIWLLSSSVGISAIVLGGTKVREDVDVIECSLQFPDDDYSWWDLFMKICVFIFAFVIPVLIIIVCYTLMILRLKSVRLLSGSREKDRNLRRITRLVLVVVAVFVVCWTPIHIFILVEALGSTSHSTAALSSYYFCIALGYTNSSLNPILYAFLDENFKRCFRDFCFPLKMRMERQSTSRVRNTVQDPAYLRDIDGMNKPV
row,EC50,SMILES
1,> 32 µM,"CCC(N=Nc1ccnc2cc(Cl)ccc12)c1ccc(O)cc1 (configuration not stated) [4-[1-[2-(7-chloroquinolin-4-yl)hydrazinyl]propylidene]cyclohexa-2,5-dien-1-one]"
2,> 32 µM,"Oc1ccc(CN=Nc2ccnc3cc(Cl)ccc23)cc1O [(4Z)-4-[[2-(7-chloroquinolin-4-yl)hydrazinyl]methylidene]-2-hydroxycyclohexa-2,5-dien-1-one]"
